# Measurements: patent publication US6737383B1, “Herbicidal oxadiazolidines” (priority 1999, dated 2004)
# What was measured:
# surinam grass = test: Test B pre/postemergence surinam grass; type: in vivo, Brachiaria decumbens
# In short: (§1)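 Response is a visual 0-to-10 score relative to untreated plants, where 0 means no effect and 10 means complete control, taken twelve to sixteen days after application. Treatments went onto soil at planting and onto foliage of 1- to 4-leaf plants, using a surfactant-containing non-phytotoxic solvent.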
# soybean = test: Test B pre/postemergence soybean; type: in vivo, Glycine max
# In short: as §1
# pigweed = test: Test B pre/postemergence pigweed; type: in vivo, Amaranthus retroflexus
# In short: as §1
# blackgrass = test: Test B pre/postemergence blackgrass; type: in vivo, Alopecurus myosuroides
# In short: as §1
# sugar beet = test: Test B pre/postemergence sugar beet; type: in vivo, Beta vulgaris
# In short: as §1
# rape = test: Test B pre/postemergence rape; type: in vivo, Brassica napus
# In short: as §1
# giant foxtail = test: Test B pre/postemergence giant foxtail; type: in vivo, Setaria faberii
# In short: as §1
# corn = test: Test B pre/postemergence corn; type: in vivo, Zea mays
# In short: as §1
# morningglory = test: Test B pre/postemergence morningglory; type: in vivo, Ipomoea hederacea
# In short: as §1
# bedstraw = test: Test B pre/postemergence bedstraw; type: in vivo, Galium aparine
# In short: as §1
# purple nutsedge = test: Test B pre/postemergence purple nutsedge; type: in vivo, Cyperus rotundus
# In short: as §1
# velvetleaf = test: Test B pre/postemergence velvetleaf; type: in vivo, Abutilon theophrasti
# In short: as §1
# [1] = Postemergence, Rate 125 g/ha, scale of 0 to 10 where 0 is no effect and 10 is complete control
# [2] = Preemergence, Rate 62 g/ha, scale of 0 to 10 where 0 is no effect and 10 is complete control
# [3] = Preemergence, Rate 125 g/ha, 0 is no effect, 10 is complete control
# [4] = Preemergence, Rate 250 g/ha, scale 0 to 10, 0 is no effect, 10 is complete control
# [5] = Preemergence, Rate 500 g/ha, scale 0 to 10 (0 no effect, 10 complete control)
# [6] = Rate 62 g/ha, Postemergence, scale of 0 to 10 where 0 is no effect and 10 is complete control
# [7] = Rate 250 g/ha, Postemergence, scale 0 to 10, 0 is no effect, 10 is complete control
# [8] = Rate 500 g/ha, Postemergence, scale 0 to 10
smiles,measurement,setting,value
CC1CCCCC1n1c(=O)on(C(=O)N(c2ccc(F)cc2)C(C)C)c1=O (stereo not drawn) [Compound 161],B. signalgrass plant response rating,surinam grass; [1],0
same,B. signalgrass plant response rating,surinam grass; [2],0
same,B. signalgrass plant response rating (0 to 10 scale),surinam grass; [3],0
same,B. signalgrass plant response rating,surinam grass; [4],5
same,B. signalgrass plant response rating,surinam grass; [5],5
same,B. signalgrass plant response rating,surinam grass; [6],0
same,"Plant response rating, B. signalgrass",surinam grass; [7],2
same,B. signalgrass plant response rating,"surinam grass; Rate 500 g/ha, Postemergence, scale 0 to 10, 0 no effect, 10 complete control",7
same,Soybean plant response rating,soybean; [1],2
same,Soybean plant response rating,soybean; [2],0
same,Soybean plant response rating (0 to 10 scale),soybean; [3],0
same,Soybean plant response rating,soybean; [4],0
same,Soybean plant response rating,soybean; [5],0
same,Soybean plant response rating,soybean; [6],2
same,"Plant response rating, Soybean",soybean; [7],4
same,Soybean plant response rating,soybean; [8],4
same,Redroot pigweed plant response rating,pigweed; [1],0
same,Redroot pigweed plant response rating,pigweed; [2],0
same,Redroot pigweed plant response rating (0 to 10 scale),pigweed; [3],0
same,Redroot pigweed plant response rating,pigweed; [4],4
same,Redroot pigweed plant response rating,pigweed; [5],10
same,Redroot pigweed plant response rating,pigweed; [6],0
same,"Plant response rating, Redroot pigweed",pigweed; [7],4
same,Redroot pigweed plant response rating,pigweed; [8],5
same,Blackgrass plant response rating,blackgrass; [1],0
same,Blackgrass plant response rating,blackgrass; [2],3
same,Blackgrass plant response rating,blackgrass; [4],7
same,Blackgrass plant response rating,blackgrass; [5],9
same,Blackgrass plant response rating,blackgrass; [6],0
same,"Plant response rating, Blackgrass",blackgrass; [7],3
same,Blackgrass plant response rating,blackgrass; [8],4
same,Sugarbeets plant response rating,sugar beet; [1],2
same,Sugarbeets plant response rating,sugar beet; [2],0
same,Sugarbeets plant response rating (0 to 10 scale),sugar beet; [3],0
same,Sugarbeets plant response rating,sugar beet; [4],0
same,Sugarbeets plant response rating,sugar beet; [5],0
same,Sugarbeets plant response rating,sugar beet; [6],0
same,"Plant response rating, Sugarbeets",sugar beet; [7],4
same,Sugarbeets plant response rating,sugar beet; [8],7
same,Rape plant response rating,rape; [1],0
same,Rape plant response rating,rape; [2],0
same,Rape plant response rating (0 to 10 scale),rape; [3],0
same,Rape plant response rating,rape; [4],0
same,Rape plant response rating,rape; [5],3
same,Rape plant response rating,rape; [6],0
same,"Plant response rating, Rape",rape; [7],0
same,Rape plant response rating,rape; [8],4
same,Giant foxtail plant response rating,giant foxtail; [1],0
same,Giant foxtail plant response rating,giant foxtail; [2],4
same,Giant foxtail plant response rating (0 to 10 scale),giant foxtail; [3],9
same,Giant foxtail plant response rating,giant foxtail; [4],9
same,Giant foxtail plant response rating,giant foxtail; [5],10
same,Giant foxtail plant response rating,giant foxtail; [6],0
same,"Plant response rating, Giant foxtail",giant foxtail; [7],3
same,Giant foxtail plant response rating,giant foxtail; [8],7
same,Corn plant response rating,corn; [1],0
same,Corn plant response rating,corn; [2],0
same,Corn plant response rating (0 to 10 scale),corn; [3],0
same,Corn plant response rating,corn; [4],0
same,Corn plant response rating,corn; [5],0
same,Corn plant response rating,corn; [6],0
same,"Plant response rating, Corn",corn; [7],0
same,Corn plant response rating,corn; [8],0
same,Morningglory plant response rating,morningglory; [1],5
same,Morningglory plant response rating,morningglory; [2],0
same,Morningglory plant response rating (0 to 10 scale),morningglory; [3],0
same,Morningglory plant response rating,morningglory; [4],0
same,Morningglory plant response rating,morningglory; [5],0
same,Morningglory plant response rating,morningglory; [6],4
same,"Plant response rating, Morningglory",morningglory; [7],7
same,Morningglory plant response rating,morningglory; [8],10
same,Bedstraw plant response rating,bedstraw; [1],3
same,Bedstraw plant response rating,bedstraw; [2],0
same,Bedstraw plant response rating (0 to 10 scale),bedstraw; [3],0
same,Bedstraw plant response rating,bedstraw; [4],0
same,Bedstraw plant response rating,bedstraw; [5],0
same,Bedstraw plant response rating,bedstraw; [6],0
same,"Plant response rating, Bedstraw",bedstraw; [7],4
same,Bedstraw plant response rating,bedstraw; [8],4
same,Nutsedge plant response rating,purple nutsedge; [1],0
same,Nutsedge plant response rating,purple nutsedge; [2],0
same,Nutsedge plant response rating (0 to 10 scale),purple nutsedge; [3],0
same,Nutsedge plant response rating,purple nutsedge; [4],0
same,Nutsedge plant response rating,purple nutsedge; [5],0
same,Nutsedge plant response rating,purple nutsedge; [6],0
same,"Plant response rating, Nutsedge",purple nutsedge; [7],0
same,Nutsedge plant response rating,purple nutsedge; [8],0
same,Velvetleaf plant response rating,velvetleaf; [2],0
same,Velvetleaf plant response rating (0 to 10 scale),velvetleaf; [3],0
same,Velvetleaf plant response rating,velvetleaf; [4],0
same,Velvetleaf plant response rating,velvetleaf; [5],0
same,"Plant response rating, Velvetleaf",velvetleaf; [7],2
same,Velvetleaf plant response rating,velvetleaf; [8],6
